Results from article PMC8443589, “Modelling human liver fibrosis in the context of non-alcoholic steatohepatitis using a microphysiological system” (Communications Biology, 2021).

Tested on: liver MPS NASH model (PHH, KC and HSC co-cultures)
Assay: Cue study: secreted cytokines and chemokines (Luminex) with varying NPC number and added cues (Fig 5a, 5b)
Type: cell-based, human
Settings: Fat media + cue
Text: There is only limited understanding of the pathogenic drivers of NASH and their interaction, principally due to a lack of translational models that are amenable to detailed molecular analysis[2],[34]. Here, a systems biology ‘cue-signal-analysis’ paradigm[35],[36] was utilised to produce large factorial datasets to enable the identification of molecular pathways of importance. […] To create varying set ups of the NASH microtissues we created hepatocyte microtissues in the MPS with high numbers of NPC (60,000 KC and HSC—equivalent to 10% of microtissue population) and low numbers of NPCs (6000 KC and HSC—equivalent to 1% of microtissue), representing physiological and non-physiological cell ratios respectively. Next, we took these different microtissues and cultured them in media with or without FFA. Finally, we supplemented the media with lipopolysaccharide (LPS), TGFβ, fructose or cholesterol either as single ‘cues’, in pairs or all together (Fig. 4a). ‘Cues’ were selected for clinical association with NASH. LPS, is a pleiotropic inflammatory molecule, it is proposed to reach the liver via the hepatic portal vein after release from the gastrointestinal tract, contributing to disease progression[37],[38]. TGFβ has been extensively studied in relation to fibrosis due to its regulation of genes controlling collagen and matrix-modifying enzymes. Fructose is a key substrate for de-novo lipogenesis, a process that has been identified as a key event in lipid accumulation within NAFLD patients. Finally, cholesterol accumulation has also been linked to NASH disease aetiology.
Assessment of gene expression changes was supplemented by assessment of the secretome produced by NASH microtissues in the MPS after exposure to the various cues. Increased pro-inflammatory cytokine secretion is a defining characteristic in NASH patients, so we conducted a Luminex cytokine array covering 42 different biomarkers, cytokines and chemokines secreted into the culture media of the different microtissues at multiple time points. […]

TGF-β was tested, and the “EGF relative expression (z-transformation)” value (Day 6) was -0.6947, the “Eotaxin relative expression (z-transformation)” value (from here on “Eotaxin relative expression”) (Day 6) was -0.9288 and the “FGF-2 relative expression (z-transformation)” value (from here on “FGF-2 relative expression”) (Day 6) was 0.0308. The “Fit-3L relative expression (z-transformation)” value (“Fit-3L relative expression” below) (Day 6) was -0.07468, the “Fractalkine relative expression (z-transformation)” value (“Fractalkine relative expression” below) (Day 6) was -0.6368 and the “G-CSF relative expression (z-transformation)” value (“G-CSF relative expression” for short) (Day 6) was 0.1243. The “GRO relative expression (z-transformation)” value (“GRO relative expression” below) (Day 6) was -0.2928, the “IFN-a2 relative expression (z-transformation)” value (“IFN-a2 relative expression” for short) (Day 6) was 0.07826 and the “IL-1RA relative expression (z-transformation)” value (“IL-1RA relative expression” for short) (Day 6) was -0.2716. For the same substance, the “IL-4 relative expression (z-transformation)” value (“IL-4 relative expression” for short) (Day 6) was -0.7382, the “IL-6 relative expression (z-transformation)” value (shortened to “IL-6 relative expression”) (Day 6) was 0.4237 and the “IL-7 relative expression (z-transformation)” value (“IL-7 relative expression” below) (Day 6) was -0.09812. The “IL-8 relative expression (z-transformation)” value (from here on “IL-8 relative expression”) (Day 6) was 0.2731, the “IL-15 relative expression (z-transformation)” value (shortened to “IL-15 relative expression”) (Day 6) was 0.3864 and the “IP-10 relative expression (z-transformation)” value (“IP-10 relative expression” for short) (Day 6) was -0.5991. The “MCP-1 relative expression (z-transformation)” value (“MCP-1 relative expression” below) (Day 6) was -0.1254, the “MCP-3 relative expression (z-transformation)” value (shortened to “MCP-3 relative expression”) (Day 6) was -0.3354 and the “MDC relative expression (z-transformation)” value (“MDC relative expression” for short) (Day 6) was 1.089. For the same substance, the “MIP-1a relative expression (z-transformation)” value (from here on “MIP-1a relative expression”) (Day 6) was -0.3189, the “MIP-1b relative expression (z-transformation)” value (“MIP-1b relative expression” for short) (Day 6) was -0.5904 and the “TNFa relative expression (z-transformation)” value (“TNFa relative expression” for short) (Day 6) was -0.3323. The “VEGF relative expression (z-transformation)” value (shortened to “VEGF relative expression”) (Day 6) was 0.1644, the “EGF relative expression (z-transformation)” value (Day 11) was 0.4971 and the “Eotaxin relative expression” value (Day 11) was -0.7902. The “FGF-2 relative expression” value (Day 11) was 1.282, the “Fit-3L relative expression” value (Day 11) was -1.046 and the “Fractalkine relative expression” value (Day 11) was 0.2445. For the same substance, the “G-CSF relative expression” value (Day 11) was 1.379, the “GM-CSF relative expression (z-transformation)” value (Day 11) was -0.7569 and the “GRO relative expression” value (Day 11) was -0.05931. For the same substance, the “IFN-a2 relative expression” value (Day 11) was -0.7423, the “IL-1RA relative expression” value (Day 11) was 1.044 and the “IL-4 relative expression” value (Day 11) was 2.047. The “IL-6 relative expression” value (Day 11) was -0.4878, the “IL-7 relative expression” value (Day 11) was 0.613 and the “IL-8 relative expression” value (Day 11) was 1.674. For the same substance, the “IL-15 relative expression” value (Day 11) was 1.1283, the “IP-10 relative expression” value (Day 11) was -0.5014 and the “MCP-1 relative expression” value (Day 11) was -0.1617. The “MCP-3 relative expression” value (Day 11) was 1.036, the “MDC relative expression” value (Day 11) was -0.8939 and the “MIP-1a relative expression” value (Day 11) was -0.2467. For the same substance, the “MIP-1b relative expression” value (Day 11) was -0.2666, the “TNFa relative expression” value (Day 11) was -0.5851 and the “VEGF relative expression” value (Day 11) was 0.04572. For the same substance, the “EGF relative expression (z-transformation)” value (Day 14) was -0.7709, the “Eotaxin relative expression” value (Day 14) was -0.8142 and the “FGF-2 relative expression” value (Day 14) was -0.6405. The “Fit-3L relative expression” value (Day 14) was -1.202, the “Fractalkine relative expression” value (Day 14) was -0.4453 and the “G-CSF relative expression” value (Day 14) was 2.694. For the same substance, the “GM-CSF relative expression (z-transformation)” value (Day 14) was -0.9022, the “GRO relative expression” value (Day 14) was -0.07849 and the “IFN-a2 relative expression” value (Day 14) was 0.3354. The “IL-1RA relative expression” value (Day 14) was 0.4791, the “IL-4 relative expression” value (Day 14) was 0.3542 and the “IL-6 relative expression” value (Day 14) was -0.7405. For the same substance, the “IL-7 relative expression” value (Day 14) was -0.2291, the “IL-8 relative expression” value (Day 14) was 1.963 and the “IL-15 relative expression” value (Day 14) was 1.049. The “IP-10 relative expression” value (Day 14) was -0.2731, the “MCP-1 relative expression” value (Day 14) was -0.3727 and the “MCP-3 relative expression” value (Day 14) was 1.8775. For the same substance, the “MDC relative expression” value (Day 14) was -0.4908, the “MIP-1a relative expression” value (Day 14) was -0.1191 and the “MIP-1b relative expression” value (Day 14) was -0.282. The “TNFa relative expression” value (Day 14) was -0.5429 and the “VEGF relative expression” value (Day 14) was -0.6644.
